From PMC11793105, “A kalihinol analog disrupts apicoplast function and vesicular trafficking in P. falciparum malaria” (Science (New York, N.Y.), 2024)
Read-outs that look alike come from different tables or passages of the source.

What was measured:
[1] = system: PfSec13-mut transgenic clones (3D7); experiment: Parasite survival assay, CRISPR-Cas9 PfSec13-mut transgenic clones; assay type: cell-based; conditions: Plasmodium falciparum
Source text: (§1) Fig. 4. […] (C) Schematic representation of the CRISPR-Cas9–based replacement strategy used to introduce a deletion of the targeted repeat regions in the PfSec13 gene. The insertion was achieved through overlap extension polymerase chain reaction (PCR) of fragments directly upstream and downstream of the target segment and subsequently formed by primer overlap extension PCR to replicate the desired deletion. […] (D) Predicted structure of the SEC13 protein highlighting the seven amino acid tandem repeat regions targeted for deletion (red). […] Data were analyzed using a Sigmoidal, 4PL (X represents concentration, n = 3, nonlinear regression, CI: 95%).
P. falciparum in vitro SYBR green fluorescence-based assays The anti-malarial activity of individual analogues were evaluated in-vitro against P. falciparum 3D7 (MRA-102, drug […]
green-I based fluorescence assay. Parasite growth rate and stages of development were determined via microscopy through Giemsa-stained smears of the cultures. Serial dilutions of the compounds ranging from 10uM-0.5nM were prepared in 96-well plates (Corning, Costar 3904) followed by […]
hematocrit added to each well. Eight wells were treated with vehicle control (DMSO) as control.
Plates were incubated in a modular incubation chamber (Billups-Rothenberg, Del Mar, CA)

[2] = system: P. cynomolgi M/B strain parasites; experiment: P. cynomolgi M/B strain drug assay (Hoechst flow cytometry); assay type: cell-based; conditions: Plasmodium cynomolgi, harvested 60 hours after initial dosing
Source text: Detailed information on materials and methods is available in the supplementary materials. […] P. knowlesi assays were quantitatively measured by flow cytometry using SYBR Green I and Mitrotracker Deep Red, as previously described ([84], [85]), on a Beckman Coulter CytoFLEX. Nonhuman primate infections were required to generate P. cynomolgi M/B strain parasites for in vitro testing ([82], [86]). […]
reduction in weight, aggressive or unexpected animal behavior, animals are immediately euthanized with CO2. If no toxic effects are observed, mice are euthanized with CO2 at the end of […]
After infection, parasitemia was monitored daily by thick and thin blood films as previously described in Joyner et al. 2019 (86). […]
dosing. […] The experiment was repeated twice, and each concentration was assessed in […]
Data analysis The percentage of parasitized erythrocytes was determined by enumerating the number of Hoechst positive events out of the total erythrocytes after excluding non-single cells by forward and side scatter. The percent survival was calculated by averaging the parasitemia in the triplicates for each condition and then dividing by the parasitemia observed in the wells that did not receive drug treatment. The IC50 was then calculated using GraphPad Prism 9 (GraphPad […]

[3] = system: S. cerevisiae strains with overexpressed or repressed Sec13p; assay type: cell-based, Saccharomyces cerevisiae; conditions: Tet-off promoter, doxycycline, vs WT yeast
Source text: as §1
PCR amplification and introduced into an episomal E. coli/yeast shuttle vector, pRS425, by using an in-fusion cloning kit (Takara Bio USA, Inc) and the resulting pRS425-SEC13 plasmid was transformed into the BY4741 yeast strain. To swiftly repress the SEC13 gene, we utilized the tet-off system. This involved substituting the native SEC13 gene promoter with a tetracycline (tet)- regulatable counterpart, while leaving the original SEC13 open reading frame intact. The yeast

HeLa = experiment: Human cell line activity, HeLa; assay type: cell-based; conditions: read-out: IC50 (µM) HeLa

Compound: [C-]#[N+][C@]1(C)CC[C@H]2[C@@H]([C@@H](C(C)C)CC[C@]2(C)[N+]#[C-])[C@H]1O [MED6-189]
- IC50 ([1]; 3D7, Sec13 mut-A): 59.8 nM
- IC50 ([1]; 3D7, Sec13 mut-B): 53.5 nM
- IC50 ([1]; 3D7, Sec13 mut-C): 49.5 nM
- IC50 ([1]; 3D7, Sec13 mut-D): 72.9 nM
- IC50 ([1]; 3D7, read-out: IC50 range, four PfSec13-mut transgenic clones): 50 to 73 nM
- IC50 [2]: 136 ± 56 nM
- increase in susceptibility on Sec13p repression [3]: ~ 5.5 fold
- IC50 (HeLa): 9.6 µM
